{
  "source": "patent US20260217653A1",
  "about": "“CRYSTALLINE COMPOUND OF AN LPAR1 ANTAGONIST” (CONTINEUM THERAPEUTICS, INC., priority 2023, published 2026)",
  "key": {"[1]": {"assay": "Dry grinding simulation experiments (mortar and pestle, XRPD)", "format": "physicochemical", "protocol": "(§1) Feasibility of formulation process for Pattern A was evaluated by compression, grinding, and granulation simulation experiments. […] About 20 mg of Pattern A crystalline polymorph was ground manually with a mortar and pestle for 1, 3, and 5 min. Potential form change and degree of crystallinity were evaluated by XRPD."}, "[2]": {"assay": "Compression simulation experiments (hydraulic press, XRPD)", "format": "physicochemical", "conditions": "for Comments (crystallinity after compression) / XRPD after compression: 5 minutes", "protocol": "as §1, with “10” for “20”, “compressed for 5 minutes under 5 MPa and 10 MPa” for “ground manually”, “hydraulic press.” for “mortar and pestle for 1, 3, and 5 min.”"}, "[3]": {"assay": "Wet granulation simulation experiments (XRPD)", "format": "physicochemical", "protocol": "Feasibility of formulation process for Pattern A was evaluated by compression, grinding, and granulation simulation experiments. […] Water or ethanol was added drop wise to about 20 mg of Pattern A crystalline polymorph until the sample was wetted sufficiently. Wet sample was ground gently with a mortar and pestle. Post granulation sample was dried under ambient condition for 3 min. Potential form change and degree of crystallinity were evaluated by XRPD."}, "[4]": {"assay": "Bulk stability of Pattern A (XRPD, HPLC, color) after 1 week storage", "format": "physicochemical", "conditions": "for Bulk (XRPD) form after storage / Color after storage / Bulk (HPLC) purity after storage: Solid state, 1 week; for Bulk (HPLC) purity after storage: initial purity 99.9%", "protocol": "Bulk stability of Pattern A was evaluated at 25° C./92% RH in an open container, at 40° C./75% RH in an open container, and at 60° C. in a tight container over 1 week. […] Pattern A crystalline polymorph was placed at 25° C./92% RH in an open container, at 40° C./75% RH in an open container, and at 60° C. in a closed container for 1 week. Samples after the stress were characterized by XRPD and HPLC and inspected for color change."}, "[5]": {"assay": "Water sorption and desorption (hygroscopicity) by dynamic vapor sorption (DVS)", "format": "physicochemical", "conditions": "25° C.", "protocol": "Hygroscopicity of Pattern A was evaluated by dynamic vapor sorption (DVS) test at 25° C. with a cycle of 40→0→95→0→40% RH at a rate of change in mass per time unit of 0.002% per minute. […] It absorbed about 1.2% water at 80% RH and 3.1% water at 95% RH at 25° C. (FIG. 8). […] Water sorption and desorption behavior of Pattern A crystalline polymorph was investigated by DVS at 25° C. with a cycle of 40-0-95-0-40% RH, dm/dt 0.002, minimum equilibration time 60 min, and maximum equilibration time 360 min. XRPD was measured after the DVS test to determine form change."}, "human LPAR1": {"biological_target": "T1, human LPAR1 (Homo sapiens, UniProt Q92633)", "T1 construct": "by own knowledge a rat neuroblastoma line", "T1 sequence (Q92633 whole entry)": "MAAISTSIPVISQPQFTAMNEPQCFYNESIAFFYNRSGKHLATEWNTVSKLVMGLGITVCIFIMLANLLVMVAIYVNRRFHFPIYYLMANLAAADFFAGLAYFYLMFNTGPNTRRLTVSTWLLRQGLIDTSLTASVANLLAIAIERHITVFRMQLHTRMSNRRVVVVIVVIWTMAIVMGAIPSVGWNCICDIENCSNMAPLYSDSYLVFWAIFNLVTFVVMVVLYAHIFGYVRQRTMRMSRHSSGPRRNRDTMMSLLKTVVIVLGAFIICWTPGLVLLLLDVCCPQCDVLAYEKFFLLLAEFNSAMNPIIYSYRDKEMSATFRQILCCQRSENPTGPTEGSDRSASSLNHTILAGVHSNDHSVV", "assay": "In vitro functional assay of lysophosphatidic acid receptor 1 activity (calcium flux, Fluo-4 NW, LPA 18:1 at EC80)", "format": "cell-based", "conditions": "B103 cells stably expressing human LPAR1", "protocol": "Primary compound plates were prepared in 100% DMSO (Sigma-Aldrich), secondary compound plates were prepared at 10× concentration in DMEM (Invitrogen), and tertiary compound plates were prepared at 3× concentration in assay buffer containing HBSS (no Ca^+2/Mg^−2. Invitrogen) and 0.1% BSA (Sigma-Aldrich). Fluo-4 NW calcium assay dye (Invitrogen) was prepared as per manufacturer's recommendations in assay buffer. B103 cells stably expressing human LPAR1 (J. Chun lab, UCSD) were grown to confluency in DMEM media (Invitrogen) containing 10% FBS (ATCC), […] (Sigma-Aldrich) and […] (Sigma-Aldrich), and detached with Accutase (Sigma-Aldrich) prior to assay. The freshly detached cells were resuspended in growth media and plated in black, clear-bottom 96-well plates (Costar) containing compound (i.e., secondary compound plate) at a density of 5×10^4 cells/well. Once plated, cells were left at room temperature for 30 minutes and then transferred to a 37° C. 5% CO2 incubator for 24 hours. […] Finally, lysophosphatidic acid (18:1) at the EC80 concentration was added and calcium flux measured using FlexStation 3 (Molecular Devices). Sigmoidal dose-response curves were generated by measuring […] over 45 sec and calculating the area under the curve. […]"}, "[6]": {"conditions": "grinding time 1 min, mortar and pestle"}},
  "note": "“Also recorded” adds a separate entry of the source.",
  "data": [
    {"smiles": "COc1ccc(NC(=O)N(c2ccccc2C(C)C)[C@H]2CC[C@H](C(=O)O)CC2)c(OC(F)F)n1", "note": "[Pattern A, trans-4-(3-(2-(difluoromethoxy)-6-methoxypyridin-3-yl)-1-(2-isopropylphenyl)ureido)cyclohexane-1-carboxylic acid]", "values": [
      {"measurement": "Form after manual grinding", "setting": "[1]; after 3 minutes of grinding with a mortar and pestle", "result": "converted to practically amorphous form"},
      {"measurement": "Comments (crystallinity after dry grinding)", "setting": "[1]; [6]", "result": "Peaks becoming broader; also recorded: Partial amorphization"},
      {"measurement": "XRPD after dry grinding", "setting": "[1]; [6]", "result": "Pattern A"},
      {"measurement": "XRPD after dry grinding", "setting": "[1]; grinding time 3 min, mortar and pestle", "result": "Almost amorphous"},
      {"measurement": "XRPD after dry grinding", "setting": "[1]; grinding time 5 min, mortar and pestle", "result": "Almost amorphous"},
      {"measurement": "Comments (crystallinity after compression)", "setting": "[2]; 5 MPa", "result": "Slight decrease in crystallinity; also recorded: Peaks becoming broader"},
      {"measurement": "XRPD after compression", "setting": "[2]; 5 MPa", "result": "Pattern A"},
      {"measurement": "Comments (crystallinity after compression)", "setting": "[2]; 10 MPa", "result": "Slight decrease in crystallinity; also recorded: Peaks becoming broader"},
      {"measurement": "XRPD after compression", "setting": "[2]; 10 MPa", "result": "Pattern A"},
      {"measurement": "Crystallinity change upon compression", "setting": "[2]; compression (5 MPa and 10 MPa)", "result": "only slight crystallinity decrease"},
      {"measurement": "Form change upon compression", "setting": "[2]; compression (5 MPa and 10 MPa)", "result": "no form change"},
      {"measurement": "Comments (crystallinity after wet granulation)", "setting": "[3]; granulation solvent ethanol", "result": "Peaks becoming broader; also recorded: Partial amorphization; also recorded: Significant decrease in"},
      {"measurement": "XRPD after wet granulation", "setting": "[3]; granulation solvent ethanol", "result": "Pattern A"},
      {"measurement": "Comments (crystallinity after wet granulation)", "setting": "[3]; granulation solvent water", "result": "Significant decrease in; also recorded: Peaks becoming broader; also recorded: Partial amorphization"},
      {"measurement": "XRPD after wet granulation", "setting": "[3]; granulation solvent water", "result": "Pattern A"},
      {"measurement": "Crystallinity/form upon wet granulation", "setting": "[3]; wet granulation with ethanol or water", "result": "partial amorphization was observed"},
      {"measurement": "Bulk stability (physical and chemical)", "setting": "[4]; 25° C./92% RH open container, 40° C./75% RH open container, 60° C. tight container, over 1 week", "result": "physically and chemically stable"},
      {"measurement": "Bulk (XRPD) form after storage", "setting": "[4]; 25° C./92% RH, open container", "result": "Pattern A (FIG. 7)"},
      {"measurement": "Color after storage", "setting": "[4]; 25° C./92% RH, open container", "result": "No change"},
      {"measurement": "Bulk (HPLC) purity after storage", "setting": "[4]; 25° C./92% RH, open container", "result": 99.9, "unit": "%"},
      {"measurement": "Bulk (XRPD) form after storage", "setting": "[4]; 40° C./75% RH, open container", "result": "Pattern A (FIG. 7)"},
      {"measurement": "Color after storage", "setting": "[4]; 40° C./75% RH, open container", "result": "No change"},
      {"measurement": "Bulk (HPLC) purity after storage", "setting": "[4]; 40° C./75% RH, open container", "result": 99.9, "unit": "%"},
      {"measurement": "Bulk (XRPD) form after storage", "setting": "[4]; 60° C., tight container", "result": "Pattern A (FIG. 7)"},
      {"measurement": "Color after storage", "setting": "[4]; 60° C., tight container", "result": "No change"},
      {"measurement": "Bulk (HPLC) purity after storage", "setting": "[4]; 60° C., tight container", "result": 99.9, "unit": "%"},
      {"measurement": "1st desorp. Weight % change", "setting": "[5]; 0% RH", "result": 0.03, "unit": "%"},
      {"measurement": "1st sorp. Weight % change", "setting": "[5]; 0% RH", "result": 0.03, "unit": "%"},
      {"measurement": "2nd desorp. Weight % change", "setting": "[5]; 0% RH", "result": 0.00, "unit": "%"},
      {"measurement": "2nd sorp. Weight % change", "setting": "[5]; 0% RH", "result": 0.00, "unit": "%"},
      {"measurement": "1st desorp. Weight % change", "setting": "[5]; 10% RH", "result": 0.05, "unit": "%"},
      {"measurement": "1st sorp. Weight % change", "setting": "[5]; 10% RH", "result": 0.05, "unit": "%"},
      {"measurement": "2nd desorp. Weight % change", "setting": "[5]; 10% RH", "result": 0.02, "unit": "%"},
      {"measurement": "2nd sorp. Weight % change", "setting": "[5]; 10% RH", "result": 0.02, "unit": "%"},
      {"measurement": "1st desorp. Weight % change", "setting": "[5]; 20% RH", "result": 0.05, "unit": "%"},
      {"measurement": "1st sorp. Weight % change", "setting": "[5]; 20% RH", "result": 0.05, "unit": "%"},
      {"measurement": "2nd desorp. Weight % change", "setting": "[5]; 20% RH", "result": 0.03, "unit": "%"},
      {"measurement": "2nd sorp. Weight % change", "setting": "[5]; 20% RH", "result": 0.02, "unit": "%"},
      {"measurement": "1st desorp. Weight % change", "setting": "[5]; 30% RH", "result": 0.06, "unit": "%"},
      {"measurement": "1st sorp. Weight % change", "setting": "[5]; 30% RH", "result": 0.05, "unit": "%"},
      {"measurement": "2nd desorp. Weight % change", "setting": "[5]; 30% RH", "result": 0.03, "unit": "%"},
      {"measurement": "2nd sorp. Weight % change", "setting": "[5]; 30% RH", "result": 0.02, "unit": "%"},
      {"measurement": "1st desorp. Weight % change", "setting": "[5]; 40% RH", "result": 0.06, "unit": "%"},
      {"measurement": "1st sorp. Weight % change", "setting": "[5]; 40% RH", "result": 0.05, "unit": "%"},
      {"measurement": "2nd desorp. Weight % change", "setting": "[5]; 40% RH", "result": 0.04, "unit": "%"},
      {"measurement": "2nd sorp. Weight % change", "setting": "[5]; 40% RH", "result": 0.03, "unit": "%"},
      {"measurement": "1st sorp. Weight % change", "setting": "[5]; 50% RH", "result": 0.06, "unit": "%"},
      {"measurement": "2nd desorp. Weight % change", "setting": "[5]; 50% RH", "result": 0.35, "unit": "%"},
      {"measurement": "1st sorp. Weight % change", "setting": "[5]; 60% RH", "result": 0.06, "unit": "%"},
      {"measurement": "2nd desorp. Weight % change", "setting": "[5]; 60% RH", "result": 0.64, "unit": "%"},
      {"measurement": "1st sorp. Weight % change", "setting": "[5]; 70% RH", "result": 0.07, "unit": "%"},
      {"measurement": "2nd desorp. Weight % change", "setting": "[5]; 70% RH", "result": 0.84, "unit": "%"},
      {"measurement": "1st sorp. Weight % change", "setting": "[5]; 80% RH", "result": 1.15, "unit": "%"},
      {"measurement": "2nd desorp. Weight % change", "setting": "[5]; 80% RH", "result": 1.16, "unit": "%"},
      {"measurement": "Hygroscopicity", "setting": "[5]; 80% RH", "result": "slightly hygroscopic"},
      {"measurement": "Water absorbed", "setting": "[5]; 80% RH", "result": "about 1.2%"},
      {"measurement": "1st sorp. Weight % change", "setting": "[5]; 90% RH", "result": 1.93, "unit": "%"},
      {"measurement": "2nd desorp. Weight % change", "setting": "[5]; 90% RH", "result": 1.93, "unit": "%"},
      {"measurement": "1st sorp. Weight % change", "setting": "[5]; 95% RH", "result": 3.06, "unit": "%"},
      {"measurement": "2nd desorp. Weight % change", "setting": "[5]; 95% RH", "result": 3.06, "unit": "%"},
      {"measurement": "Hygroscopicity", "setting": "[5]; 95% RH", "result": "hygroscopic"},
      {"measurement": "Water absorbed", "setting": "[5]; 95% RH", "result": "~3.1", "unit": "%"},
      {"measurement": "XRPD after DVS test", "setting": "[5]; after cycle 40-0-95-0-40% RH", "result": "still Pattern A; also recorded: No form change (FIG. 9)"}
    ]},
    {"smiles": "COc1ccc(NC(=O)N(c2ccccc2C(C)C)[C@H]2CC[C@H](C(=O)O)CC2)c(OC(F)F)n1", "note": "[trans-4-(3-(2-(difluoromethoxy)-6-methoxypyridin-3-yl)-1-(2-isopropylphenyl)ureido)cyclohexane-1-carboxylic acid]", "values": [
      {"measurement": "IC50", "setting": "human LPAR1", "result": 10, "unit": "nM"}
    ]}
  ]
}
